Laboratory results as given in US10464920B2, “Vicinal primary diamines associated with metal and/or free radical chelation motifs, and active against carbonyl and oxidative stress, and use thereof” (UNIVERSITE AMIENS PICARDIE JULES VERNE, priority 2015, dated 2019).

What was measured:
[1] = Formation of adducts with MGO, kinetic study by HPLC; assay type: physicochemical; conditions: compound 10 mM, MGO 20 mM, 37° C.; for disappearance of the free scavenger to the benefit of adducts with the MGO: after 15 min of incubation
Protocol: The compounds to be tested are incubated at 37° C. in the presence of MGO or of MDA. A kinetic study aiming to report on the formation of adducts with the MGO or MDA is then carried out via HPLC analysis.
The compounds to be tested (30 μmol) are dissolved in PBS (1.5 mL). An aqueous solution (qsp 1.25 mL) of MGO at 40% in water (250 μmol) is then prepared and in parallel, MDA bis-(diOEt)-acetal (250 μmol) is set to react with a solution of HCl 1N (2 eq) in water (qsp 1.25 mL) for 1 h at room temperature. An aqueous solution of NaOH 0.05N is also required to neutralise the reaction medium (5 mL).
The solution of the compound to be tested (625 μL—final concentration in the medium=10 mM) is then set to react with the solution of MGO or of MDA prepared extemporaneously (125 μL—final concentration in the medium=20 mM) in the presence of NaOH 0.05 N (0.5 mL).
The various mixtures are then incubated in the oven at 37° C. for 24 h.
A sampling of each mixture (100 μL) is taken at regular intervals of time (0.25; 0.5; 1; 5 and 24 h) and stored at −20° C. in order to stop the reaction. After dilution in a MeCN/H2O 98:2 mixture at room temperature, the HPLC analysis is carried out on a Shimadzu LCMS-2020 apparatus (UV chromatogram at 190 nm and mass spectrum in positive electrospray ionisation mode (ESI+)) after separation on the Waters Acquity column using a gradient of solvents H2O+HCOOH 0.1%/MeCN+HCOOH 0.1% (98/2 for 2 min, then 55/45 for 2 min and 45/55 for 3 min) with a flow rate of 0.3 mL/min at 40° C. and an injection of volume of 1 (“detection mode: scan, interface voltage: tuning file, DL voltage: 100 V, Q-array DC: 40 V, Q-array RF: 40 V”). A blank is first of all carried out using a solution containing the reaction medium without scavenger. Then, a free scavenger solution at 10 mM is used as a negative control and the carnosine as a reference of the literature. The proportion of adducts formed with the MGO or MDA (generally, tR=4.1 to 6.8 min) is then measured in relation to the quantity of remaining free scavenger (generally, tR=0.8 to 4.6 min) after measurement of the area under the curve of the corresponding peaks on the UV spectrum (measurements taken for a representative sample).

[2] = Cu2+ chelating properties by UV/Visible light spectrophotometry (murexide); assay type: physicochemical; conditions: 0.02-2 mM compound, CuSO4 0.25 mM solution, Hexamine buffer pH 5, RT 10 min
Protocol: J. Mol. Sci., 2009, 10, 5485-5497; Molecules, 2012, 17, 13457-13472). […] A Hexamine buffer 0.01 M/KCl 0.01 M (qsp 200 mL) of which the pH is adjusted to 5 using a solution of HCl 1N is first of all prepared. Solutions of CuSO4.5H2O at 0.5 mM (20 mL) and 0.25 mM (100 mL) are then carried out in this buffer, with the first being used to obtain the calibration curve. An aqueous solution of murexide at 1 mM must also be prepared extemporaneously (10 mL) as well as a stock solution of the compounds to be tested at 4.2 mM in Hexamine buffer 0.01 M/KCl 0.01 M or in a buffer and MeOH 75/25 mixture (6.2 mL). Various concentrations of the compounds to be tested are distributed in Hexamine buffer 0.01M/KCl 0.01M (pH=5) (Table 5) or in a buffer and MeOH 75/25 mixture in tubes for hemolysis (Table 6). The solution of CuSO4.5H2O at 0.25 mM (1 mL) is then added and this is allowed to incubate at RT for 10 min. Finally, the aqueous solution of murexide at 1 mM (0.1 mL) is introduced and is again allowed to incubate at RT for 1 min. The absorbances are then measured at 485 nm ([…]) and 520 nm ([…]) by UV/Visible light spectrophotometry (V-650 JASCO spectrometer) (measurements taken in triplicates). […] After introduction of the aqueous solution of murexide at 1 mM (0.1 mL), this is allowed to incubate at RT for 1 min and the absorbances are finally measured at 485 nm ([…]) and 520 nm ([…]) by UV/Visible light spectrophotometry.

[3] = tested on: murine endothelial brain cells (bEnd.3); assay: Cytotoxicity, cellular viability (CCK-8/WST-8) on bEnd.3; assay type: cell-based; conditions: mouse
Protocol: (§1) The cellular viability is evaluated by a colorimetric method based on the detection of the conversion of a salt of the tetrazolium (WST-8) by the metabolically active cells (CCK-8 kit, Sigma, Lyons, France) (Molecules, 2014, 19(8), 12048-12064; J. Pharmacol. Toxicol. Methods., 2007, 56(1), 58-62). Living cells have mitochondrial dehydrogenases that reduce the WST-8 (2-(2-methoxy-4-nitrophenyl)-3-(4-nitrophenyl)-5-(2,4-disulfophenyl)-2H-tetrazolium), monosodium salt) to formazan of an orange colour, which dissolves directly in the culture medium in the presence of 1-Methoxy PMS (1-methoxy-5-methylphenazinium methyl sulphate). After an incubation for 1 h at 37° C., the absorbance of the formazan is measured at 450 nm. The absorbance is directly proportional to the number of living cells.
(§2) Briefly, the cells are inoculated in 96-well plates at a rate of 5.10^3 cells per well in 100 μL of the suitable medium until subconfluence. The cells are then washed with D-PBS, then treated with various concentrations (10 μM, 100 μM) of the products to be tested in triplicates for 24 and 48 h. A positive control is carried out with 10% of DMSO. The CCK-8 (10 μL) solution is then added to each well for an incubation for 1 h at 37° C. The measurement of the absorbance is taken at 450 nm using a Perkin Elmer 2103 Envision® microplate reader.
(§3) The viability of the cells is expressed as a % of the control (untreated cells) by the mean±standard deviation of triplicates forming a representative experiment or of three independent experiments conducted in triplicate.

[4] = tested on: rat pheochromocytoma cells, treated as neuronal cells (PC12); assay: Cytotoxicity, cellular viability (CCK-8/WST-8) on PC12; assay type: cell-based; conditions: rat
Protocol: as §1, §2, §3

Q: For `COc1cc(/C=C/C(=O)N2CCN(C(=O)CCC(N)CN)CC2)ccc1O` (centres unmarked) [Compound 29a, (E)-4,5-diamino-1-(4-(3-(4-hydroxy-3-methoxyphenyl)acryloyl)piperazin-1-yl)pentan-1-one], which “adducts with the MGO with regards to the free scavenger” value ([1]; after 5 h of reaction, no HPLC separation, trend) is on record?
A: Its value is “majority presence of AdB”.

Q: And the “Cu^2+ chelating properties (complexation of the Cu^2+)” value [2]?
A: Its value is “poor results”.

Q: And the “viability of the cells as a percentage of the untreated cells” value ([3]; 24 h, 10 μM)?
A: The value was 98%.

Q: And the “viability of the cells as a percentage of the untreated cells” value ([3]; 24 h, 100 μM)?
A: Its value is 87%.

Q: And the “viability of the cells as a percentage of the untreated cells” value ([3]; 48 h, 10 μM)?
A: The value was 90%.

Q: And the “viability of the cells as a percentage of the untreated cells” value ([3]; 48 h, 100 μM)?
A: The value was 83%.

Q: What about the “viability of the cells as a percentage of the untreated cells” value ([4]; 24 h, 10 μM) of the same molecule?
A: The value was 100%.

Q: And the “viability of the cells as a percentage of the untreated cells” value ([4]; 24 h, 100 μM)?
A: The value was 120%.

Q: And the “viability of the cells as a percentage of the untreated cells” value ([4]; 48 h, 10 μM)?
A: The value was 94%.

Q: And the “viability of the cells as a percentage of the untreated cells” value ([4]; 48 h, 100 μM)?
A: The value was 87%.

Q: What does the source list for `NCC(N)CCCCNC(=O)c1cc(O)c(O)c(O)c1` (centres unmarked) [Compound 30b, N-(5,6-diaminohexyl)-3,4,5-trihydroxybenzamide]?
A: Cu^2+ chelating properties (complexation of the Cu^2+) [2]: most active; viability of the cells as a percentage of the untreated cells ([3]; 24 h, 10 μM): 93%; viability of the cells as a percentage of the untreated cells ([3]; 24 h, 100 μM): 99%; viability of the cells as a percentage of the untreated cells ([3]; 48 h, 10 μM): 92%; viability of the cells as a percentage of the untreated cells ([3]; 48 h, 100 μM): 87%; viability of the cells as a percentage of the untreated cells ([4]; 24 h, 10 μM): 110%; viability of the cells as a percentage of the untreated cells ([4]; 24 h, 100 μM): 82%; viability of the cells as a percentage of the untreated cells ([4]; 48 h, 10 μM): 95%; viability of the cells as a percentage of the untreated cells ([4]; 48 h, 100 μM): 67%

Q: For `NCC(N)CCCNC(=O)CCn1cccc(O)c1=O` (centres unmarked) [Compound 37a, N-(4,5-diaminopentyl)-3-(3-hydroxy-2-oxopyridin-1(2H)-yl)propanamide], which “disappearance of the free scavenger to the benefit of adducts with the MGO” value [1] is on record?
A: The value was “almost total disappearance of the free scavenger”.

Q: What about the “viability of the cells as a percentage of the untreated cells” value ([3]; 24 h, 10 μM) of the same molecule?
A: Its value is 97%.

Q: What about the “viability of the cells as a percentage of the untreated cells” value ([3]; 24 h, 100 μM) of the same molecule?
A: The value was 103%.

Q: And the “viability of the cells as a percentage of the untreated cells” value ([3]; 48 h, 10 μM)?
A: The value was 99%.

Q: And the “viability of the cells as a percentage of the untreated cells” value ([3]; 48 h, 100 μM)?
A: The value was 93%.

Q: And the “viability of the cells as a percentage of the untreated cells” value ([4]; 24 h, 10 μM)?
A: The value was 93%.

Q: And the “viability of the cells as a percentage of the untreated cells” value ([4]; 24 h, 100 μM)?
A: The value was 112%.

Q: What about the “viability of the cells as a percentage of the untreated cells” value ([4]; 48 h, 10 μM) of the same molecule?
A: The value was 96%.

Q: What about the “viability of the cells as a percentage of the untreated cells” value ([4]; 48 h, 100 μM) of the same molecule?
A: The value was 99%.

Q: What does the source list for `NCC(N)CCCCNC(=O)CCn1cccc(O)c1=O` (centres unmarked) [Compound 37b, N-(5,6-diaminohexyl)-3-(3-hydroxy-2-oxopyridin-1(2H)-yl)propanamide]?
A: disappearance of the free scavenger to the benefit of adducts with the MGO [1]: almost total disappearance of the free scavenger; Cu^2+ chelating properties (complexation of the Cu^2+) [2]: most active; viability of the cells as a percentage of the untreated cells ([3]; 24 h, 10 μM): 126%; viability of the cells as a percentage of the untreated cells ([3]; 24 h, 100 μM): 115%; viability of the cells as a percentage of the untreated cells ([3]; 48 h, 10 μM): 101%; viability of the cells as a percentage of the untreated cells ([3]; 48 h, 100 μM): 100%; viability of the cells as a percentage of the untreated cells ([4]; 24 h, 10 μM): 138%; viability of the cells as a percentage of the untreated cells ([4]; 24 h, 100 μM): 124%; viability of the cells as a percentage of the untreated cells ([4]; 48 h, 10 μM): 115%; viability of the cells as a percentage of the untreated cells ([4]; 48 h, 100 μM): 107%

Q: With `NCC(N)CCC(=O)NCCCn1cccc(O)c1=O` (centres unmarked) [Compound 37c, 4,5-diamino-N-(3-(3-hydroxy-2-oxopyridin-1(2H)-yl)propyl)pentanamide] as the molecule, how does the “disappearance of the free scavenger to the benefit of adducts with the MGO” value [1] read?
A: The value was “almost total disappearance of the free scavenger”.

Q: And the “viability of the cells as a percentage of the untreated cells” value ([3]; 24 h, 10 μM)?
A: Its value is 99%.

Q: What about the “viability of the cells as a percentage of the untreated cells” value ([3]; 24 h, 100 μM) of the same molecule?
A: The value was 85%.

Q: What about the “viability of the cells as a percentage of the untreated cells” value ([3]; 48 h, 10 μM) of the same molecule?
A: Its value is 86%.

Q: What about the “viability of the cells as a percentage of the untreated cells” value ([3]; 48 h, 100 μM) of the same molecule?
A: The value was 84%.

Q: And the “viability of the cells as a percentage of the untreated cells” value ([4]; 24 h, 10 μM)?
A: Its value is 110%.

Q: What about the “viability of the cells as a percentage of the untreated cells” value ([4]; 24 h, 100 μM) of the same molecule?
A: Its value is 102%.

Q: What about the “viability of the cells as a percentage of the untreated cells” value ([4]; 48 h, 10 μM) of the same molecule?
A: Its value is 91%.

Q: What about the “viability of the cells as a percentage of the untreated cells” value ([4]; 48 h, 100 μM) of the same molecule?
A: The value was 94%.
